Counter-ions that a name gives are not always drawn.
Tests used:
[1] = system: human monocyte stimulated cytokine production (TNF-α); test: Monocyte assay (LPS-stimulated TNF-α production); assay type: cell-based; conditions: 24 h, 200 ng/mL LPS, TNF-α by ELISA
Procedure, shortened: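 Human CD14+ monocytes were purified from blood and plated at 1×10^6 cells/mL in RPMI 1640 with 10% FBS. Compound was added 30 min before stimulation with 200 ng/mL LPS (0.1% DMSO final), followed by 24 hrs at 37 C. Supernatant TNF-α was measured by ELISA, and viability by trypan blue exclusion.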

[2] = target: T1, Recombinant human IKKβ (residues 1-737) (Homo sapiens, UniProt O14920); test: IKK2 assay (TR-FRET); assay type: biochemical; conditions: ATP 1 μM final, read-out: pIC50 against IKK2 (converted)
T1 construct: Recombinant human IKKβ (residues 1-737); GST (C); made in house
T1 sequence (O14920 1-737): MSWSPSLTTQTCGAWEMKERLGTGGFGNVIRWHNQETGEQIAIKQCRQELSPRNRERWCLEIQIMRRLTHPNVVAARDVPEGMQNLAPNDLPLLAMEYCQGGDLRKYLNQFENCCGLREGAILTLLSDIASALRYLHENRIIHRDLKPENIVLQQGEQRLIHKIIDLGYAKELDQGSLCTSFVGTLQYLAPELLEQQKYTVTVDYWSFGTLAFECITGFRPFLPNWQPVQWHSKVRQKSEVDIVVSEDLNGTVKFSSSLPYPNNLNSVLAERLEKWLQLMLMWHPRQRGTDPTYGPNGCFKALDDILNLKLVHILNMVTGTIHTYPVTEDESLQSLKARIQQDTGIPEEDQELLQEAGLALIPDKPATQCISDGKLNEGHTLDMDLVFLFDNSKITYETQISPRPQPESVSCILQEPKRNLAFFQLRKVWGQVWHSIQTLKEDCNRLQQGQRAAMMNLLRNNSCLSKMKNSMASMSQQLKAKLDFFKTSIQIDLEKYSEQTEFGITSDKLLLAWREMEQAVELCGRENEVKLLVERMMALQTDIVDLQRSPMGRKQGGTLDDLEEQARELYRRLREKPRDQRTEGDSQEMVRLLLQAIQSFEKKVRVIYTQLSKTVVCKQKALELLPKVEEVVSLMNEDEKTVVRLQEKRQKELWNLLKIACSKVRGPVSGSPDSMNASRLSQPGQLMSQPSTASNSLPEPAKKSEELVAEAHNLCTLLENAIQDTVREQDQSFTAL
Procedure, shortened: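 Baculovirus-expressed C-terminal GST-tagged IKKβ (0.5-5 nM final) in HEPES pH 7.4, MgCl2, CHAPS, DTT, BSA with 1.7% DMSO; 25 nM GST-IB substrate and 1 μM ATP, 15 min at room temperature. EDTA stop; phospho-Ser32/36 detected by Eu-antibody/APC-anti-GST TR-FRET, 665/620 nm ratio.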

SMILES	IC50 [1]	IC50 [2]
CCS(=O)(=O)N1CCC(c2c[nH]c3c(C(N)=O)cc(-c4ccc(CNC(C)COC)s4)cc23)CC1 (stereo not drawn) [Example 61, 3-[1-(ethylsulfonyl)-4-piperidinyl]-5-[5-({[1-methyl-2-(methyloxy)ethyl]amino}methyl)-2-thienyl]-1H-indole-7-carboxamide]	≤ 1.5 µM	≤ 10 µM
CCS(=O)(=O)N1CCC(c2c[nH]c3c(C(N)=O)cc(-c4csc(CN5CCCCC5)c4)cc23)CC1 [Example 235, 3-[1-(ethylsulfonyl)-4-piperidinyl]-5-[5-(1-piperidinylmethyl)-3-thienyl]-1H-indole-7-carboxamide trifluoroacetate]	≤ 1.5 µM	≤ 10 µM
CCS(=O)(=O)N1CCC(c2c[nH]c3c(C(N)=O)cc(-c4cc(CN5CCCC5)cs4)cc23)CC1 [Example 209, 3-[1-(ethylsulfonyl)-4-piperidinyl]-5-[4-(1-pyrrolidinylmethyl)-2-thienyl]-1H-indole-7-carboxamide trifluoroacetate]	≤ 1.5 µM	≤ 10 µM
CCS(=O)(=O)N1CCC(c2c[nH]c3c(C(N)=O)cc(-c4csc(CN5CCCC5)c4)cc23)CC1 [Example 232, 3-[1-(ethylsulfonyl)-4-piperidinyl]-5-[5-(1-pyrrolidinylmethyl)-3-thienyl]-1H-indole-7-carboxamide trifluoroacetate]	≤ 1.5 µM	≤ 10 µM
CCS(=O)(=O)N1CCC(c2c[nH]c3c(C(N)=O)cc(-c4cccc(CNCc5ccsc5)c4)cc23)CC1 [Example 17, 3-[1-(ethylsulfonyl)-4-piperidinyl]-5-(3-{[(3-thienylmethyl)amino]methyl}phenyl)-1H-indole-7-carboxamide]	≤ 1.5 µM	≤ 10 µM
CCS(=O)(=O)N1CCC(c2c[nH]c3c(C(N)=O)cc(-c4csc(CN[C@H](C)C(C)C)c4)cc23)CC1 [Example 113, 5-[5-({[(1R)-1,2-dimethylpropyl]amino}methyl)-3-thienyl]-3-[1-(ethylsulfonyl)-4-piperidinyl]-1H-indole-7-carboxamide trifluoroacetate]	≤ 1.5 µM	≤ 10 µM
CCS(=O)(=O)N1CCC(c2c[nH]c3c(C(N)=O)cc(-c4cccc(C(C)NC5CCC5)c4)cc23)CC1 (stereo not drawn) [Example 295, 5-{3-[1-(cyclobutylamino)ethyl]phenyl}-3-[1-(ethylsulfonyl)-4-piperidinyl]-1H-indole-7-carboxamide trifluoroacetate]	≤ 1.5 µM	≤ 10 µM
CCS(=O)(=O)N1CCC(c2c[nH]c3c(C(N)=O)cc(-c4cccc(CNCC(C)C)c4)cc23)CC1 [Example 156, 3-[1-(ethylsulfonyl)-4-piperidinyl]-5-(3-{[(2-methylpropyl)amino]methyl}phenyl)-1H-indole-7-carboxamide]	≤ 1.5 µM	≤ 10 µM
CCS(=O)(=O)N1CCC(c2c[nH]c3c(C(N)=O)cc(-c4ccc(CN(C)C)s4)cc23)CC1 [Example 240, 5-{5-[(dimethylamino)methyl]-2-thienyl}-3-[1-(ethylsulfonyl)-4-piperidinyl]-1H-indole-7-carboxamide trifluoroacetate]	≤ 1.5 µM	≤ 10 µM
CCS(=O)(=O)N1CCC(c2c[nH]c3c(C(N)=O)cc(-c4ccc(N5CCCC5)nc4)cc23)CC1 [Example 224, 3-[1-(ethylsulfonyl)-4-piperidinyl]-5-[6-(1-pyrrolidinyl)-3-pyridinyl]-1H-indole-7-carboxamide trifluoroacetate]	> 1 µM	≤ 10 µM
CCS(=O)(=O)N1CCC(c2c[nH]c3c(C(N)=O)cc(-c4ccc(CNC(=O)C5CC5)cc4)cc23)CC1 [Example 158, 5-(4-{[(cyclopropylcarbonyl)amino]methyl}phenyl)-3-[1-(ethylsulfonyl)-4-piperidinyl]-1H-indole-7-carboxamide]	> 1 µM	≤ 10 µM
CCS(=O)(=O)N1CCC(c2c[nH]c3c(C(N)=O)cc(-c4ccnc(N5CCCC5)c4)cc23)CC1 [Example 203, trifluoroacetate]	> 1 µM	≤ 10 µM

The next lines start with the values.

IC50 [1]	IC50 [2]	SMILES
≤ 1.5 µM	≤ 10 µM	CCS(=O)(=O)N1CCC(c2c[nH]c3c(C(N)=O)cc(-c4cccc(C5CCCN5)c4)cc23)CC1 (stereo not drawn) [Example 332, 3-[1-(ethylsulfonyl)-4-piperidinyl]-5-[3-(2-pyrrolidinyl)phenyl]-1H-indole-7-carboxamide trifluoroacetate]
≤ 1.5 µM	≤ 10 µM	CCS(=O)(=O)N1CCC(c2c[nH]c3c(C(N)=O)cc(-c4cc(F)cc(CNCCOC)c4)cc23)CC1 [Example 326, 3-[1-(ethylsulfonyl)-4-piperidinyl]-5-[3-fluoro-5-({[2-(methyloxy)ethyl]amino}methyl)phenyl]-1H-indole-7-carboxamide trifluoroacetate]
> 1 µM	≤ 10 µM	CCS(=O)(=O)N1CCC(c2c[nH]c3c(C(N)=O)cc(-c4ccccc4CNC)cc23)CC1 [Example 303, 3-[1-(ethylsulfonyl)-4-piperidinyl]-5-{2-[(methylamino)methyl]phenyl}-1H-indole-7-carboxamide trifluoroacetate]
> 1 µM	≤ 10 µM	CCS(=O)(=O)N1CCC(c2c[nH]c3c(C(N)=O)cc(-c4ccc(N5CCCC5)nn4)cc23)CC1 [Example 302, 3-[1-(ethylsulfonyl)-4-piperidinyl]-5-[6-(1-pyrrolidinyl)-3-pyridazinyl]-1H-indole-7-carboxamide trifluoroacetate]
> 1 µM	≤ 10 µM	CCS(=O)(=O)N1CCC(c2c[nH]c3c(C(N)=O)cc(-c4cc(CN5CCCC5)ccc4F)cc23)CC1 [Example 340, 3-[1-(ethylsulfonyl)-4-piperidinyl]-5-[2-fluoro-5-(1-pyrrolidinylmethyl)phenyl]-1H-indole-7-carboxamide trifluoroacetate]
≤ 1.5 µM	≤ 10 µM	CCS(=O)(=O)N1CCC(c2c[nH]c3c(C(N)=O)cc(-c4cccc(C5CCCN5C)c4)cc23)CC1 (stereo not drawn) [Example 344, 3-[1-(ethylsulfonyl)-4-piperidinyl]-5-[3-(1-methyl-2-pyrrolidinyl)phenyl]-1H-indole-7-carboxamide trifluoroacetate]
≤ 1.5 µM	≤ 10 µM	CCC(C)(C)N(C)Cc1cc(-c2cc(C(N)=O)c3[nH]cc(C4CCN(S(=O)(=O)CC)CC4)c3c2)cs1 [Example 412, 5-{5-[(1,1-dimethylpropyl)(methyl)amino]methyl}-3-thienyl)-3-[1-(ethylsulfonyl)-4-piperidinyl]-1H-indole-7-carboxamide trifluoroacetate]
≤ 1.5 µM	≤ 10 µM	CCS(=O)(=O)N1CCC(c2c[nH]c3c(C(N)=O)cc(-c4cc(F)cc(CNC[C@H]5CCCO5)c4)cc23)CC1 [Example 313, 3-[1-(ethylsulfonyl)-4-piperidinyl]-5-[3-fluoro-5-({[(2R)-tetrahydro-2-furanylmethyl]amino}methyl)phenyl]-1H-indole-7-carboxamide trifluoroacetate]
> 1 µM	≤ 10 µM	CCc1cc(Br)ccc1S(=O)(=O)NCc1cccc(-c2cc(C(N)=O)c3[nH]cc(C4CCN(S(=O)(=O)CC)CC4)c3c2)c1 [Example 381, 5-[3-({[(4-bromo-2-ethylphenyl)sulfonyl]amino}methyl)phenyl]-3-[1-(ethylsulfonyl)-4-piperidinyl]-1H-indole-7-carboxamide]

Source: patent US8063071B2 (GlaxoSmithKline, LLC, priority 2007, dated 2011)
